Test results reported in patent US7582663B2, “Biaromatic compounds which activate PPARγ type receptors and cosmetic/pharmaceutical compositions comprised thereof” (Galderma Research & Development, priority 2002, dated 2009).

target: T1, PPARγ (Homo sapiens, UniProt P37231); assay: Crossed-curve PPAR transactivation test (PPARγ); assay type: cell-based; conditions: HeLN cells stably transfected with Gal-hPPARγ and luciferase reporter; Schild regression against reference agonist; n.a. means not active; read-out: PPARγ Kd app
T1 sequence (P37231 238-505 limits assumed): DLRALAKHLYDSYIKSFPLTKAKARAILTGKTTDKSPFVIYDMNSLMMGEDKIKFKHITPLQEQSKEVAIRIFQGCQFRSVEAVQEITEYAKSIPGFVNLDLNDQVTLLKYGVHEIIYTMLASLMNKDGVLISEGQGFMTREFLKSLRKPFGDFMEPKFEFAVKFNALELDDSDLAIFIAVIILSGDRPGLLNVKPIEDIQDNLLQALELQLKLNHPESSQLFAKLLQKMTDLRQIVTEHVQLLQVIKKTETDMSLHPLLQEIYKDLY
Experimental: The activation of receptors with an agonist (activator) in HeLN cells leads to the expression of a reporter gene, luciferase, which, in the presence of a substrate, generates light. The modulation of the receptors is measured by quantifying the luminescence produced after incubating the cells in the presence of a reference agonist. The ligands displace the agonist from its site. The measurement of the activity is performed by quantifying the light produced. This measurement makes it possible to determine the modulatory activity of the compounds according to the invention by determining the constant that is the affinity of the molecule for the receptor. Since this value can fluctuate depending on the basal activity and the expression of the receptor, it is referred to as Kd apparent (KdApp in nM).
This is 88 measurement points for 1 product and 1 receptor. The remaining 8 wells are used for repeatability controls.
Measurements are also taken for total agonist controls with the same products.
The HeLN cell lines used are stable transfectants containing the plasmids ERE-βGlob-Luc-SV-Neo (reporter gene) and PPAR (α, δ, γ) Gal-hPPAR. These cells are inoculated into 96-well plates at a rate of 10 000 cells per well in 100 μl of DMEM medium without phenol red and supplemented with 10% of defatted calf serum. The plates are then incubated at 37° C. and 7% CO2 for 16 hours.
The various dilutions of the test products and of the reference ligand are added at a rate of 5 μl per well. The plates are then incubated for 18 hours at 37° C. and 7% CO2. The culture medium is removed by turning over and 100 μl of a 1:1 PBS/luciferine mixture are added to each well. After 5 minutes, the plates are read by the luminescence detector.

Kd | SMILES
250 nM | CCCc1nnc(C(Cc2ccc(-c3cccc(CN(C)C(=O)c4ccc5cc(OCOCCOC)ccc5c4)c3)cc2)OCC)o1 (stereo not drawn) [Example 1, N-{4′-[2-ethoxy-2-(5-propyl[1,3,4]oxadiazol-2-yl)ethyl]biphenyl-3-ylmethyl}-N-methyl-6-(2-methoxyethoxymethoxy)naphthalene-2-carboxylamide]
250 nM | CCCc1nnc(C(Cc2ccc(-c3cccc(CN(C)C(=O)c4ccc5cc(C(=O)OC)ccc5c4)c3)cc2)OCC)o1 (stereo not drawn) [Example 7, methyl 6-({4′-[2-ethoxy-2-(5-propyl[1,3,4]oxadiazol-2-yl)ethyl]biphenyl-3-ylmethyl}methylcarbamoyl)naphthalene-2-carboxylate]
1000 nM | CCCc1nnc(C(Cc2ccc(-c3cccc(CN(C)C(=O)c4ccc(Oc5ccccc5)cc4)c3)cc2)OCC)o1 (stereo not drawn) [Example 2, N-{4′-[2-ethoxy-2-(5-propyl[1,3,4]oxadiazol-2-yl)ethyl]biphenyl-3-ylmethyl}-N-methyl-4-phenoxybenzamide]
